# Laboratory results taken from PubChem BioAssay AID1963978 (Molecular Pharmacology Branch, DTP, NCI, 2024).
# System: 616215-338-R-J1-PDC spheroids with HUVEC/MSC, viability
# Experiment: Anticancer human tumor 616215-338-R-J1-PDC patient-derived colon adenocarcinoma cell line growth inhibition [PI3K]
# Settings: for viability, T/C: stronger effect = lower value
# Summary of the method: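 Multi-cell spheroids combine tumor cells with HUVEC and human MSCs, treated with targeted agents alone or with inavolisib, alpelisib, duvelisib or copanlisib. Concentrations fall in half-log steps from at or near clinical Cmax, or from 10 microM where Cmax is unknown; viability read-out.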
# [1] = curve of first compound, second compound 0.00316 µM
# [2] = curve of first compound, second compound 0.01 µM
# [3] = curve of first compound, second compound 0.0316 µM
# [4] = curve of first compound, second compound 0.1 µM
# [5] = curve of first compound, second compound 0.316 µM
# [6] = curve of first compound, second compound 1 µM
# [7] = second compound 0.00316 µM, first compound 0.0316 µM
# [8] = second compound 0.00316 µM, first compound 0.1 µM
# [9] = second compound 0.00316 µM, first compound 0.316 µM
# [10] = second compound 0.00316 µM, first compound 1 µM
# [11] = second compound 0.00316 µM, first compound 3.16 µM
# [12] = second compound 0.00316 µM, first compound 10 µM
# [13] = second compound 0.01 µM, first compound 0.0316 µM
# [14] = second compound 0.01 µM, first compound 0.1 µM
# [15] = second compound 0.01 µM, first compound 0.316 µM
# [16] = second compound 0.01 µM, first compound 1 µM
# [17] = second compound 0.01 µM, first compound 3.16 µM
# [18] = second compound 0.01 µM, first compound 10 µM
# [19] = second compound 0.0316 µM, first compound 0.0316 µM
# [20] = second compound 0.0316 µM, first compound 0.1 µM
# [21] = second compound 0.0316 µM, first compound 0.316 µM
# [22] = second compound 0.0316 µM, first compound 1 µM
# [23] = second compound 0.0316 µM, first compound 3.16 µM
# [24] = second compound 0.0316 µM, first compound 10 µM
# [25] = second compound 0.1 µM, first compound 0.0316 µM
# [26] = second compound 0.1 µM, first compound 0.1 µM
# [27] = second compound 0.1 µM, first compound 0.316 µM
# [28] = second compound 0.1 µM, first compound 1 µM
# [29] = second compound 0.1 µM, first compound 3.16 µM
# [30] = second compound 0.1 µM, first compound 10 µM
# [31] = second compound 0.316 µM, first compound 0.0316 µM
# [32] = second compound 0.316 µM, first compound 0.1 µM
# [33] = second compound 0.316 µM, first compound 0.316 µM
# [34] = second compound 0.316 µM, first compound 1 µM
# [35] = second compound 0.316 µM, first compound 3.16 µM
# [36] = second compound 0.316 µM, first compound 10 µM
# [37] = second compound 1 µM, first compound 0.0316 µM
# [38] = second compound 1 µM, first compound 0.1 µM
# [39] = second compound 1 µM, first compound 0.316 µM
# [40] = second compound 1 µM, first compound 1 µM
# [41] = second compound 1 µM, first compound 3.16 µM
# [42] = second compound 1 µM, first compound 10 µM
# 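Further: spheroids exposed to agents for seven days before the viability read.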
structure (smiles),measurement,setting,value
C=CC(=O)N1CCN(c2nc(=O)n(-c3c(C)ccnc3C(C)C)c3nc(-c4c(O)cccc4F)c(F)cc23)C(C)C1 (centres undefined) + COc1c(OCCCN2CCOCC2)ccc2c3n(c(=NC(=O)c4cnc(N)nc4)nc12)CCN3,IC50,[1],> 10 µM
same,IC50,[2],> 10 µM
same,IC50,[3],> 10 µM
same,IC50,[4],> 10 µM
same,IC50,[5],< 0.0316 µM
same,IC50,[6],< 0.0316 µM
same,"viability, T/C",[7],90.8%
same,"viability, T/C",[8],87.9%
same,"viability, T/C",[9],92.2%
same,"viability, T/C",[10],96.6%
same,"viability, T/C",[11],95.2%
same,"viability, T/C",[12],80.1%
same,"viability, T/C",[13],110%
same,"viability, T/C",[14],92.2%
same,"viability, T/C",[15],97.8%
same,"viability, T/C",[16],101%
same,"viability, T/C",[17],111%
same,"viability, T/C",[18],78%
same,"viability, T/C",[19],106%
same,"viability, T/C",[20],85.9%
same,"viability, T/C",[21],99.5%
same,"viability, T/C",[22],110%
same,"viability, T/C",[23],87.8%
same,"viability, T/C",[24],76.2%
same,"viability, T/C",[25],91.7%
same,"viability, T/C",[26],96.8%
same,"viability, T/C",[27],93.4%
same,"viability, T/C",[28],98.9%
same,"viability, T/C",[29],90.2%
same,"viability, T/C",[30],71.7%
same,"viability, T/C",[31],52.7%
same,"viability, T/C",[32],36.7%
same,"viability, T/C",[33],46.1%
same,"viability, T/C",[34],47.1%
same,"viability, T/C",[35],47.1%
same,"viability, T/C",[36],36.6%
same,"viability, T/C",[37],23.4%
same,"viability, T/C",[38],23.2%
same,"viability, T/C",[39],29.8%
same,"viability, T/C",[40],24.4%
same,"viability, T/C",[41],25.4%
same,"viability, T/C",[42],21%
CC1(C)CCC(CN2CCN(c3ccc(C(=O)NS(=O)(=O)c4ccc(NCC5CCOCC5)c([N+](=O)[O-])c4)c(Oc4cnc5[nH]ccc5c4)c3)CC2)=C(c2ccc(Cl)cc2)C1 + CC(Nc1ncnc2nc[nH]c12)c1cc2cccc(Cl)c2c(=O)n1-c1ccccc1,IC50,[3],4.56 µM
same,IC50,[4],4.67 µM
same,IC50,[5],4.79 µM
same,IC50,[6],4.99 µM
same,IC50,"curve of first compound, second compound 3.16 µM",5.14 µM
same,IC50,"curve of first compound, second compound 10 µM",5.53 µM
same,"viability, T/C",[19],98.3%
same,"viability, T/C",[20],105%
same,"viability, T/C",[21],110%
same,"viability, T/C",[22],104%
same,"viability, T/C",[23],71.3%
same,"viability, T/C",[24],4.22%
same,"viability, T/C",[25],109%
same,"viability, T/C",[26],103%
same,"viability, T/C",[27],101%
same,"viability, T/C",[28],96.7%
same,"viability, T/C",[29],74.2%
same,"viability, T/C",[30],3.61%
same,"viability, T/C",[31],107%
same,"viability, T/C",[32],103%
same,"viability, T/C",[33],107%
same,"viability, T/C",[34],103%
same,"viability, T/C",[35],76.6%
same,"viability, T/C",[36],2.7%
same,"viability, T/C",[37],101%
same,"viability, T/C",[38],107%
same,"viability, T/C",[39],108%
same,"viability, T/C",[40],110%
same,"viability, T/C",[41],80.8%
same,"viability, T/C",[42],2.87%
same,"viability, T/C","second compound 3.16 µM, first compound 0.0316 µM",108%
same,"viability, T/C","second compound 3.16 µM, first compound 0.1 µM",111%
same,"viability, T/C","second compound 3.16 µM, first compound 0.316 µM",99.2%
same,"viability, T/C","second compound 3.16 µM, first compound 1 µM",123%
same,"viability, T/C","second compound 3.16 µM, first compound 3.16 µM",85%
same,"viability, T/C","second compound 3.16 µM, first compound 10 µM",2.42%
same,"viability, T/C","second compound 10 µM, first compound 0.0316 µM",118%
same,"viability, T/C","second compound 10 µM, first compound 0.1 µM",105%
same,"viability, T/C","second compound 10 µM, first compound 0.316 µM",105%
same,"viability, T/C","second compound 10 µM, first compound 1 µM",105%
same,"viability, T/C","second compound 10 µM, first compound 3.16 µM",94.9%
same,"viability, T/C","second compound 10 µM, first compound 10 µM",2.49%
CNC(=O)c1ccc(N2C(=S)N(c3ccc(C#N)c(C(F)(F)F)c3)C(=O)C2(C)C)cc1F + COc1c(OCCCN2CCOCC2)ccc2c3n(c(=NC(=O)c4cnc(N)nc4)nc12)CCN3,IC50,[1],> 10 µM
same,IC50,[2],> 10 µM
same,IC50,[3],> 10 µM
same,IC50,[4],> 10 µM
same,IC50,[5],< 0.0316 µM
same,IC50,[6],< 0.0316 µM
same,"viability, T/C",[7],92.8%
same,"viability, T/C",[8],92.1%
same,"viability, T/C",[9],95.9%
same,"viability, T/C",[10],92%
same,"viability, T/C",[11],99%
same,"viability, T/C",[12],93%
same,"viability, T/C",[13],98.7%
same,"viability, T/C",[14],108%
same,"viability, T/C",[15],103%
same,"viability, T/C",[16],93.3%
same,"viability, T/C",[17],111%
same,"viability, T/C",[18],87%
same,"viability, T/C",[19],103%
same,"viability, T/C",[20],98.1%
same,"viability, T/C",[21],99.8%
same,"viability, T/C",[22],105%
same,"viability, T/C",[23],96.5%
same,"viability, T/C",[24],89.1%
same,"viability, T/C",[25],97.4%
same,"viability, T/C",[26],89.6%
same,"viability, T/C",[27],91.5%
same,"viability, T/C",[28],107%
same,"viability, T/C",[29],84.6%
same,"viability, T/C",[30],67%
same,"viability, T/C",[31],50.8%
same,"viability, T/C",[32],45.3%
same,"viability, T/C",[33],38.1%
same,"viability, T/C",[34],43.1%
same,"viability, T/C",[35],41.1%
same,"viability, T/C",[36],29.2%
same,"viability, T/C",[37],21.8%
same,"viability, T/C",[38],22.5%
same,"viability, T/C",[39],22.8%
same,"viability, T/C",[40],22%
same,"viability, T/C",[41],25.6%
same,"viability, T/C",[42],14.4%
CC(C)NCC(C(=O)N1CCN(c2ncnc3c2C(C)CC3O)CC1)c1ccc(Cl)cc1 (centres undefined),"viability, T/C",compound 0.0316 µM,98.8% [middle of 4 runs]
same,"viability, T/C",compound 0.1 µM,94.3% [middle of 4 runs]
same,"viability, T/C",compound 0.316 µM,95.1% [middle of 4 runs]
same,"viability, T/C",compound 1 µM,102% [middle of 4 runs]
same,"viability, T/C",compound 3.16 µM,77.5% [middle of 4 runs]
same,IC50,curve of compound,6.53 µM [middle of 4 runs]
Cn1ncc(Cl)c1-c1cc(C(=O)NC(CN)Cc2cccc(F)c2)sc1Cl (centres undefined) + COc1c(OCCCN2CCOCC2)ccc2c3n(c(=NC(=O)c4cnc(N)nc4)nc12)CCN3,IC50,[1],2.98 µM
same,IC50,[2],2.96 µM
same,IC50,[3],2.49 µM
same,IC50,[4],1.89 µM
same,IC50,[5],< 0.0316 µM
same,IC50,[6],< 0.0316 µM
same,"viability, T/C",[7],95.1%
same,"viability, T/C",[8],90.2%
same,"viability, T/C",[9],91.7%
same,"viability, T/C",[10],99.6%
same,"viability, T/C",[11],47.6%
same,"viability, T/C",[12],16.6%
same,"viability, T/C",[13],108%
same,"viability, T/C",[14],96.3%
same,"viability, T/C",[15],94.6%
same,"viability, T/C",[16],92.9%
same,"viability, T/C",[17],47.3%
same,"viability, T/C",[18],17.6%
same,"viability, T/C",[19],102%
same,"viability, T/C",[20],104%
same,"viability, T/C",[21],96.7%
same,"viability, T/C",[22],75.2%
same,"viability, T/C",[23],43.9%
same,"viability, T/C",[24],15.1%
same,"viability, T/C",[25],90.8%
same,"viability, T/C",[26],86.8%
same,"viability, T/C",[27],79.7%
same,"viability, T/C",[28],72.8%
same,"viability, T/C",[29],32.2%
same,"viability, T/C",[30],12.9%
same,"viability, T/C",[31],45%
same,"viability, T/C",[32],35%
same,"viability, T/C",[33],35.5%
same,"viability, T/C",[34],32%
same,"viability, T/C",[35],27.2%
same,"viability, T/C",[36],15.3%
same,"viability, T/C",[37],21.4%
same,"viability, T/C",[38],28.2%
same,"viability, T/C",[39],16.9%
same,"viability, T/C",[40],20.9%
same,"viability, T/C",[41],16.6%
same,"viability, T/C",[42],7.24%
